Data set [1] concerns Helicobacter pylori (NCTC 11638). In words: Antiseptic action: MIC, agar plate dilution method. The class given is cell-based. The note with it: for MIC: NCTC11638, Helicobacter pylori (NCTC 11638), Brucella broth agar with horse blood, read-out: Minimum inhibitory concentration; for Inhibition of the growth of Helicobacter pylori (in words): comment on Table 8.
For data set [2], the system named is Bacillus cereus (IFO 3466). In words: Antiseptic action: MIC, agar plate dilution method. The data set is classed as cell-based. To be noted: IFO3466; Bacillus cereus (IFO 3466); read-out: Minimum inhibitory concentration.
The subject of data set [3] is Pseudomonas aeruginosa (IFO 3453). In words: Antiseptic action: MIC, agar plate dilution method. The class given is cell-based. The note with it: IFO3453; Pseudomonas aeruginosa (IFO 3453); read-out: Minimum inhibitory concentration.
For data set [4], the system named is Staphylococcus aureus (ATCC 6538P). Nature of the data set: Antiseptic action: MIC, agar plate dilution method. The class given is cell-based. The note with it: ATCC6538P; Staphylococcus aureus (ATCC 6538P); read-out: Minimum inhibitory concentration.
Data set [5] concerns vesicular stomatitis virus (VSV). In words: microbe, parasite or virus in culture. The class given is cell-based. The note with it: L929, 24 h, read-out: 50% Growth inhibitory concentration.
Data set [6] has as its system HGC-27 cells. In words: Antitumor action: growth inhibition, methylene blue staining. The data set is classed as cell-based. The note with it: Homo sapiens; HGC-27 cells, 48 hours; read-out: 50% growth inhibitory concentration. The procedure:
(§1) Solutions in each well were serially diluted with a fresh preparation of the same RPMI1640 medium (pH 7.2) as used in the above. […] Each cell suspension was distributed to a microplate in a volume of 50 μl/well and incubated at 37° C. for 48 hours in a 5 v/v % CO2 incubator. To each microplate, a 25 v/v % aqueous glutaraldehyde solution was added in a volume of 20 μl/well, and the microplate was allowed to stand for 15 min to fix the cells. Then, the cells adhered to the wells were washed with water, admixed with a 0.05 w/v % aqueous methylene blue solution in a volume of 100 μl/well, and further allowed to stand for 15 min to stain the cells. Thereafter, an excessive amount of the staining solution was removed from the wells by washing with water, and the cells were dried, admixed with 300 μl/well of 0.33 N hydrochloric acid, stirred sufficiently, and measured for absorption at a wavelength of 620 nm. In parallel, as a control, a system free of a test sample was provided and treated similarly as in the test samples. […]

The test system of data set [7] is HL-60 cells. Described as above. The data set is classed as cell-based. The note with it: Homo sapiens; HL-60 cells, 48 hours; read-out: 50% growth inhibitory concentration. The procedure:
as §1

Data set [8] deals with HLC-1 cells. The description is as above. To be noted: Homo sapiens; HLC-1 cells, 48 hours; read-out: 50% growth inhibitory concentration. The data set is classed as cell-based. The procedure:
as §1

Data set [9] can be described thus: Radical-entrapping action, nitro blue tetrazolium (NBT) method. The data set is classed as biochemical. To be noted: for Radical-entrapping action: one unit = 50% inhibition of formazan formation, xanthin oxidase/xanthin/NBT; for Radical-entrapping action (in words): comment on Table 11. The procedure: Then the formed formazan was quantified on spectro-chemical analysis. Either of the present physiologically active extracts was dissolved in a refined water to give an appropriate concentration, and the solutions were used for test samples. As a control it was provided by replacing the test samples with a refined water. The 50% inhibitory activity for the formation of formazan in the control was defined as a one unit activity of radical-entrapping action. Based of the definition, the radical-entrapping activity of one gram of each test sample was determined.

The subject of data set [10] is interferon-γ production. To be noted: HBL-38 cells + LPS; for Interferon-γ production level: 24 hours, positive control 5.468, negative control 1.367. The procedure:
HBL-38 cells as an immunocompetent cell were cultured until proliferated to a prescribed cell density. After culturing, the proliferated HBL-38 cells were washed three times with RPMI1640 medium (pH 7.2) (hereinafter designated as “serum-free medium” in Experiment 15) by centrifugation, and adjusted to give a cell density of 1×10^8 cells/ml using the serum-free medium. To one milliliter of the cell suspension were added 4.5 ml of the serum-free medium and 0.5 ml of a disperse solution prepared by dissolving dispase, commercialized by Godo Shusei, Co., Ltd., Tokyo, Japan, in physiological saline to give a concentration of 10,000 units/ml, and the mixture was incubated at 37° C. for 90 min under shaking conditions. Thereafter, HBL-38 cells were washed three times with the serum medium by centrifugation and mixed with the serum medium into a cell suspension with a cell density of 1×10^6 cells/ml.
(§2) […] of either of the above dilutes of Compound 7, 150 μl of the above cell suspension of HBL-38 cells treated with disperse, and 50 μl of a serum-free medium containing 5 μg/ml of lipopolysaccharide (LPS) were added to each well in a microplate, and the cells were incubated at 37° C. for 24 hours in a 5 v/v % CO2 incubator and used for test group. In parallel, as a negative control, a system with a serum-free medium in place of the serum-free medium containing LPS in the test group, and, as a positive group, a system with a serum medium in place of the dilute of Compound 7 in the test group were provided and treated similarly as in test group. After 24-hour incubation, 50 μl aliquots of supernatants from each well were collected. The collected supernatants were respectively subjected to conventional enzyme immunoassay using Gg23-901-530, obtained from National Institute of Health, Bethesda, Md., USA, as a standard for human interferon-γ, and quantified for interferon-γ production in each system. The cells in each well, from which the supernatants were removed, were mixed with 50 μl aliquots of a ^3H-thymidine solution with a radiation intensity of 5 μCi/ml in serum medium, and incubated at 37° C. for eight hours in a 5 v/v % CO2 incubator. Thereafter, the cells in each well in the microplate were collected with a glass filter, measured for radiation intensity by “DIRECT β-COUNTER MATRIX 96”, a β-ray detector commercialized by Packard Instrument Co., Conn., USA, and examined for ^3H-thymidine uptake by the cells in each well. […] In Table 13 the level of ^3H-thymidine uptake is expressed with a relative value (%) to the positive control.

The subject of data set [11] is HBL-38 cells. To be noted: for Relative value of 3H-thymidine uptake: HBL-38 cells, relative to positive control = 100. The procedure: as §2

Experimental findings from patent US6524625B2, “Physiologically active extract obtained from indigo plant polygonum tinctorium” (Kabushiki Kaisha Hayashibara Seibutsu Kagaku Kenkyuto, priority 1998, dated 2003) are described below.

Converted amounts (≈) assume the structure as drawn. Where two headings read alike, the source gives them in different places.

For `O=c1c(O)c(-c2ccc(O)cc2)oc2cc3c(c(O)c12)OCO3` [Compound 2, 3,5, 4′-trihydroxy-6,7-methylenedioxy-flavone], the MIC in data set [1] amounted to 156 µg/mL (≈ 496 µM); in [2], 313 µg/mL (≈ 996 µM); in [3], 313 µg/mL (≈ 996 µM); in data set [4], 313 µg/mL (≈ 996 µM). In addition, the IC50 in data set [5] turned out to be 14 µg/mL (≈ 44.6 µM); in [6] it was 37.1 µg/mL (≈ 118 µM); in [7] it was 244 µg/mL (≈ 775 µM); in data set [8], 40.4 µg/mL (≈ 129 µM). Moreover, the Radical-entrapping action in data set [9] is reported as 1,830 unit/g.
With `O=c1c(O)c(-c2ccc(O)cc2)oc2cc(O)cc(O)c12` [Compound 3, kaempferol], in [1], the MIC stood at 39 µg/mL (≈ 136 µM) and the “Inhibition of the growth of Helicobacter pylori (in words)” value is listed as “strongly inhibited the growth”. Further, the Radical-entrapping action in data set [9] was 14,000 unit/g.
The matching figures for `COc1c(O)cc2oc(-c3ccc(O)cc3)c(O)c(=O)c2c1O` [Compound 4, 3,5,7,4′-tetrahydroxy-6-methoxy-flavone]: 39 µg/mL (≈ 123 µM), “strongly inhibited the growth” and 4,010 unit/g.
`O=C(O)c1cc(O)c(O)c(O)c1` [Compound 5, gallic acid]: in [9], the “Radical-entrapping action (in words)” value is recorded as “remarkable” and the Radical-entrapping action is listed as 692,000 unit/g.
With `O=C(O)/C=C/c1ccc(O)c(O)c1` [Compound 6, caffeic acid], in data set [9], the “Radical-entrapping action (in words)” value is listed as “remarkable” and the Radical-entrapping action was 418,000 unit/g.
As to `O=C1Nc2ccccc2/C1=C1/Nc2ccccc2C1=O` [Compound 7, 3-(1,3-dihydro-3-oxo-2H-indol-2-ylidene)-1,3-dihydro-2H-indol-2-one], the Interferon-γ production level was 2.753 IU/ml in data set [10] (0.07 ng/ml); 2.195 IU/ml in data set [10] (0.15 ng/ml); 1.979 IU/ml in data set [10] (0.31 ng/ml); 1.958 IU/ml in data set [10] (0.62 ng/ml); 1.288 IU/ml in data set [10] (1.25 ng/ml); 1.342 IU/ml in data set [10] (2.5 ng/ml). Besides, the Interferon-γ production level in [10] (5.0 ng/ml) was 0.932 IU/ml; in [10] (10.0 ng/ml), 0.965 IU/ml. Moreover, the “Concentration at which interferon-γ production was inhibited to the same or lower level as the negative control free of LPS” value in [10] is reported as “at least 1.25 ng/ml”. Further, the “Inhibition of interferon-γ production (in words)” value in [10] is “inhibited the interferon-γ production dose-dependently”. Besides, the “Relative value of 3H-thymidine uptake” value in data set [11] (0.07 ng/ml) came out at 98.0%; in [11] (0.15 ng/ml), 98.3%; in data set [11] (0.31 ng/ml) it was 99.7%; in data set [11] (0.62 ng/ml), 96.4%; in data set [11] (1.25 ng/ml) it was 99.6%; in data set [11] (2.5 ng/ml) it was 105.7%. Also, the “Relative value of 3H-thymidine uptake” value in data set [11] (5.0 ng/ml) came to 101.1%; in [11] (10.0 ng/ml), 99.4%. In addition, the “Level of 3H-thymidine uptake by HBL-38 cells, control vs test groups (in words)” value in data set [11] (0.07-10.0 ng/ml) is on record as “no significant difference”.
